Reference: US20060276464A1, “Diarylsulfone sulfonamides and use thereof” (Wyeth, priority 2005, published 2006)
Several values for one entry are separate records, joined by “and”; a condition that tells them apart may be missing. Identical values can stand only once. Like-named read-outs stand apart in the source and are kept apart here.

Assays:
SFRP-1 [1] = molecular target: T1, SFRP-1 (Homo sapiens, UniProt Q8N474); assay: Fluorescence polarization binding assay (competitive displacement of a probe compound from SFRP-1); conditions: fluorescence anisotropy, 45 nM SFRP-1, 20 nM probe;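 also: test compound competes with a fluorescent probe held by SFRP-1, seen as a drop in probe anisotropy after incubation in darkness, with anisotropy as function of rising compound dose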
T1 sequence (Q8N474 32-314): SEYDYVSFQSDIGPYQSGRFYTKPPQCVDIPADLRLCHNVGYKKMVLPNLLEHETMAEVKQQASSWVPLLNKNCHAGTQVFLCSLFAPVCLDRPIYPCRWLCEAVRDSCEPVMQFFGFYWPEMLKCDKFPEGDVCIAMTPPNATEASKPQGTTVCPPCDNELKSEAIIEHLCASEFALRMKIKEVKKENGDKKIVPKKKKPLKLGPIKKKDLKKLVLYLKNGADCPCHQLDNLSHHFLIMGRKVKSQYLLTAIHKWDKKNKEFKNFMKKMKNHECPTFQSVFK

SFRP-1 [2] = molecular target: T1, SFRP-1; assay: Cell-based assay for in vitro measurement of SFRP-1/SARP2 antagonist activity (U2OS cells co-transfected with 16x TCF-tk-Luciferase reporter, Wnt and hSFRP-1); conditions: for fold induction at 10 µM / fold induction at 15 µM: U2OS; for fold induction at 10 µM: read-out: Fold Induction with SFRP-1, U2OS cells, single dose 10 μM, luciferase reporter, fold induction over SFRP-1 control;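 as to all read-outs here: U2OS cells co-transfected with a TCF-tk luciferase reporter, a Wnt vector, hSFRP-1 or empty vector and CMV-βgal, luciferase luminescence read in cell lysates alongside βgal activity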
[3] = read-out: Fold Induction with SFRP-1, Conc 15 μM, single dose, luciferase reporter, fold induction over SFRP-1 control, cells with SFRP-1
[4] = read-out: Fold Induction without SFRP-1, Conc 15 μM, single dose, luciferase reporter, cells without SFRP-1 (specificity control)

Row | SMILES | IC50 (SFRP-1 [1]) | fold induction at 10 µM (SFRP-1 [2]) | EC50 (SFRP-1 [2]) | fold induction at 15 µM (SFRP-1 [2]; [3]) | fold induction at 15 µM (SFRP-1 [2]; [4]) | fold induction at 15 µM (SFRP-1 [2]; read-out: Fold Induction with SFRP-1, Conc 15 μM, with SFRP-1, fold induction over SFRP-1 control, single dose) | fold induction at 15 µM (SFRP-1 [2]; read-out: Fold Induction without SFRP-1, Conc 15 μM, without SFRP-1, single dose)
1 | CC(C)c1ccc(S(=O)(=O)c2cn(C)cn2)cc1S(=O)(=O)NCCc1ccccn1 [Example 513, 2-isopropyl-5-[(1-methyl-1H-imidazol-4-yl)sulfonyl]-N-(2-pyridin-2-ylethyl)benzenesulfonamide] | 6 µM |  |  | 2.2 | 1.2 |  | 
2 | Cn1ccc2cc(S(=O)(=O)c3ccc(Cl)c(S(=O)(=O)NC4CCOCC4)c3)ccc21 [Example 607, 2-chloro-5-[(1-methyl-1H-indol-5-yl)sulfonyl]-N-(tetrahydro-2H-pyran-4-yl)benzenesulfonamide] | 2 µM |  |  | 2.3 | 1.1 |  | 
3 | CC(C)c1ccc(S(=O)(=O)c2ccc(N3C[C@@H](C)N[C@@H](C)C3)cc2)cc1S(=O)(=O)NC1CCOCC1 [Example 626, 5-({4-cis-3,5-dimethylpiperazin-1-ylphenyl}sulfonyl)-2-isopropyl-N-(tetrahydro-2H-pyran-4-yl)benzenesulfonamide] | 4 µM |  |  | 2.9 | 1.1 |  | 
4 | C[C@@H](NS(=O)(=O)c1cc(S(=O)(=O)c2ccccc2)ccc1Cl)[C@H](O)c1ccccc1 (relative stereo) [Example 676, 2-chloro-N-[(1R*,2R*)-2-hydroxy-1-methyl-2-phenylethyl]-5-(phenylsulfonyl)benzenesulfonamide] | 9 µM | 2.6 | 8.9 µM |  |  |  | 
5 | CN(CCNS(=O)(=O)c1cc(S(=O)(=O)c2ccccc2)ccc1C(F)(F)F)C(=O)N[C@H]1CCNC1 [Example 937, N-[2-(methyl{[(3S)-pyrrolidin-3-ylamino]carbonyl}amino)ethyl]-5-(phenylsulfonyl)-2-(trifluoromethyl)benzenesulfonamide] | 1.7 µM | 2.8 | 2.3 µM |  |  |  | 
6 | CC(C)c1ccc([S@@+]([O-])c2ccccc2)cc1S(=O)(=O)NCCc1ccccn1 [Example 591, 2-isopropyl-5-[(S)-phenylsulfinyl]-N-(2-pyridin-2-ylethyl)benzenesulfonamide] | 5 µM and 6 µM |  |  | 3.1 | 1.3 |  | 
7 | CNc1ccc(S(=O)(=O)c2ccc(C(C)C)c(S(=O)(=O)NCC3CCOCC3)c2)cc1 [Example 543, 2-isopropyl-5-{[4-(methylamino)phenyl]sulfonyl}-N-(tetrahydro-2H-pyran-4-ylmethyl)benzenesulfonamide] | 0.8 µM and 1.6 µM |  |  | 2.7 | 1.1 |  | 
8 | CCc1ccc(S(=O)(=O)c2ccc(F)cc2)cc1S(=O)(=O)NC(C)C(O)c1ccccc1 (stereo not drawn) [Example 392, 2-ethyl-5-[(4-fluorophenyl)sulfonyl]-N-[(trans)-2-hydroxy-1-methyl-2-phenylethyl]benzenesulfonamide] | 4 µM |  |  |  |  | 2.8 | 1
9 | O=S(=O)(NCc1ccncc1)c1cc(S(=O)(=O)c2ccccc2)ccc1C(F)(F)F [Example 949, 5-(phenylsulfonyl)-N-(pyridin-4-ylmethyl)-2-(trifluoromethyl)benzenesulfonamide] | 0.8 µM | 3.2 | 1 µM |  |  |  | 
10 | Cc1cc(F)ccc1S(=O)(=O)c1ccc(C(C)C)c(S(=O)(=O)NCCc2ccccn2)c1 [Example 596, 5-[(4-fluoro-2-methylphenyl)sulfonyl]-2-isopropyl-N-(2-pyridin-2-ylethyl)benzenesulfonamide] | 1.6 µM |  |  | 4.2 | 1.3 |  | 
11 | CC(C)c1ccc(S(=O)(=O)c2ccc(F)c(Cl)c2)cc1S(=O)(=O)NCCc1ccccn1 [Example 595, 5-[(3-chloro-4-fluorophenyl)sulfonyl]-2-isopropyl-N-(2-pyridin-2-ylethyl)benzenesulfonamide] | 1.2 µM |  |  | 3.4 | 1.4 |  | 

More lines, now with the values ahead:

Row | IC50 (SFRP-1 [1]) | fold induction at 10 µM (SFRP-1 [2]) | EC50 (SFRP-1 [2]) | fold induction at 15 µM (SFRP-1 [2]; [3]) | fold induction at 15 µM (SFRP-1 [2]; [4]) | fold induction at 15 µM (SFRP-1 [2]; read-out: Fold Induction with SFRP-1, Conc 15 μM, with SFRP-1, fold induction over SFRP-1 control, single dose) | fold induction at 15 µM (SFRP-1 [2]; read-out: Fold Induction without SFRP-1, Conc 15 μM, without SFRP-1, single dose) | SMILES
12 | 0.28 µM | 2.4 |  |  |  |  |  | CC(C)(C)OC(=O)NCCNS(=O)(=O)c1cc(S(=O)(=O)c2ccccc2)ccc1C(F)(F)F [Example 742, tert-Butyl[2-({[5-(phenylsulfonyl)-2-(trifluoromethyl)phenyl]sulfonyl}amino)ethyl]carbamate]
13 | 0.5 µM | 3 | 1.46 µM |  |  |  |  | COC(=O)C1CCC(NS(=O)(=O)c2cc(S(=O)(=O)c3ccccc3)ccc2C(F)(F)F)CC1 (stereo not shown) [Example 946, methyl 4-({[5-(phenylsulfonyl)-2-(trifluoromethyl)phenyl]sulfonyl}amino)cyclohexanecarboxylate]
14 | 0.4 µM | 4.5 | 0.631 µM |  |  |  |  | COc1cccc(S(=O)(=O)c2ccc(C(F)(F)F)c(S(=O)(=O)NCCC#N)c2)c1 [Example 745, N-(2-cyanoethyl)-5-[(3-methoxyphenyl)sulfonyl]-2-(trifluoromethyl)benzenesulfonamide]
15 | 0.08 µM | 3.4 | 0.627 µM |  |  |  |  | CCOC(=O)CNC(=O)N(C)CCNS(=O)(=O)c1cc(S(=O)(=O)c2ccccc2)ccc1C(F)(F)F [Example 882, ethyl N-({methyl[2-({[5-(phenylsulfonyl)-2-(trifluoromethyl)phenyl]sulfonyl}amino)ethyl]amino}carbonyl)glycinate]
16 | 0.5 µM |  | 1.52 µM |  |  |  |  | O=S(=O)(NCc1ccc(N2CCOCC2)nc1)c1cc(S(=O)(=O)c2ccccc2)ccc1C(F)(F)F [Example 1033, N-[(6-morpholin-4-ylpyridin-3-yl)methyl]-5-(phenylsulfonyl)-2-(trifluoromethyl)benzenesulfonamide]
17 | 0.6 µM | 2.7 | 0.774 µM |  |  |  |  | CN(CCCNS(=O)(=O)c1cc(S(=O)(=O)c2ccccc2)ccc1C(F)(F)F)C(=O)NC1CCNCC1 [Example 971, N-(3-{methyl[(piperidin-4-ylamino)carbonyl]amino}propyl)-5-(phenylsulfonyl)-2-(trifluoromethyl)benzenesulfonamide]
18 | 0.7 µM | 3 | 0.698 µM |  |  |  |  | CC(C)c1ccc(S(=O)(=O)c2ccc(F)cc2)cc1S(=O)(=O)NC1CCN(C(=S)Nc2cccnc2)CC1 [Example 701, 4-[({5-[(4-fluorophenyl)sulfonyl]-2-isopropylphenyl}sulfonyl)amino]-N-pyridin-3-ylpiperidine-1-carbothioamide]
19 | 0.5 µM | 1.5 | 0.229 µM |  |  |  |  | N#Cc1ccc(CCNS(=O)(=O)c2cc(S(=O)(=O)c3ccccc3)ccc2C(F)(F)F)cc1 [Example 966, N-[2-(4-cyanophenyl)ethyl]-5-(phenylsulfonyl)-2-(trifluoromethyl)benzenesulfonamide]
20 | 0.6 µM | 4.3 | 1.35 µM |  |  |  |  | O=S(=O)(N[C@H]1CCNC1)c1cc(S(=O)(=O)c2ccccc2)ccc1C(F)(F)F [Example 796, 5-(phenylsulfonyl)-N-[(3S)-pyrrolidin-3-yl]-2-(trifluoromethyl)benzenesulfonamide]
21 | 0.5 µM | 3.1 | 1.26 µM |  |  |  |  | C[C@@H](CO)NS(=O)(=O)c1cc(S(=O)(=O)c2ccccc2)ccc1C(F)(F)F [Example 725, N-[(1S)-2-hydroxy-1-methylethyl]-5-(phenylsulfonyl)-2-(trifluoromethyl)benzenesulfonamide]
